The results in this text go back to article PMC10507154 (iScience, 2023).

For experiment [1], the target named is T1, SquF (MaSquF) (Marinobacterium aestuarii, UniProt A0A1A9EZ66).
T1 sequence (A0A1A9EZ66 1-300): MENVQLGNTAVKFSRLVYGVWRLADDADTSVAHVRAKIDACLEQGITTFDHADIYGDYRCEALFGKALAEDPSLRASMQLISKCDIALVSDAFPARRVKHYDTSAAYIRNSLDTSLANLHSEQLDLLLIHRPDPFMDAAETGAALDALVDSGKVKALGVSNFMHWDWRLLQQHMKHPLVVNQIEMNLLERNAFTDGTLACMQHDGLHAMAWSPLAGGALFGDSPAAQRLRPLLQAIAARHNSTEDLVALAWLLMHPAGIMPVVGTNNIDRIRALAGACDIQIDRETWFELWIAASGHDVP
Nature of the experiment: DNPH derivatization and LC-MS of 6-dehydroglucose. Type of experiment: biochemical. The following applies: 10 mM NADP^+, 100 mM glucose, 50 mM CAPSO pH 10.0, RT; reverse reaction.

The target of experiment [2] is T1, SquF (MaSquF). Nature of the experiment: LC-MS of glucose. Type of experiment: biochemical. The following applies: 0.5 mM NADPH, 6-dehydroglucose generated from SQ by SqoD, RT.

In the case of `OC[C@H]1OC(O)[C@H](O)[C@@H](O)[C@@H]1O` (stereo partly drawn) [D-glucose], the “DNPH derivatization and LC-MS of 6-dehydroglucose” value in experiment [1] was “SquF also catalyzed the reverse reaction, oxidation of glucose to 6-dehydoglucose”.
`NC(=O)C1=CN([C@@H]2O[C@H](COP(=O)(O)OP(=O)(O)OC[C@H]3O[C@@H](n4cnc5c(N)ncnc54)[C@H](OP(=O)(O)O)[C@@H]3O)[C@@H](O)[C@H]2O)C=CC1` [NADPH]: the “LC-MS of glucose; NADPH consumption” value in experiment [2] was “Inclusion of SquF and NADPH in the assay followed by LC-MS analysis”.
